The test system of the first assay is castrated male Sprague Dawley rats. Briefly: Ventral Prostate and Levator Ani Weight In Vivo Assay. The arrangement: key: active: greater than or equal to 25% stimulation of levator ani at 30 mg/kg. Particulars: mature castrated rats, once daily for 14 days, oral gavage, 30 mg/kg. The method, then:
Ventral Prostate and Levator Ani Weight In Vivo Assay
Mature (150 to 200 g) castrated male Sprague Dawley rats (Charles River) were treated once daily for 14 days with test compound (usually administered by oral gavage at up to the desired dosage, up to 30 mg/kg in a volume of 1 mL, in 30% cyclodextrin or 0.5% methylcellulose vehicle), or with testosterone propionate (administered subcutaneously by injection at the nape of the neck at 5 mg/kg, in a volume of 0.1 mL in sesame oil), or with vehicle (1 mL of 30% cyclodextrin or 0.5% methylcellulose, given orally). On the fifteenth day, the rats were euthanized by asphyxiation in carbon dioxide. Ventral prostates and levator ani muscles were removed and their wet weights determined.
Test compound activity was determined as the percent stimulation of tissue weight, with the vehicle-treated control group set to zero percent and the testosterone alone-treated control group set to 100%. A compound was designated as “active” if it produced greater than or equal to 25% stimulation of levator ani at 30 mg/kg.
As for `CC(O)(CC#N)c1nc2cc(Cl)c(Cl)cc2[nH]1` (stereo not drawn) [Compound 7, 3-(5,6-dichloro-1H-benzoimidazol-2-yl)-3-hydroxy-butyronitrile], the “Activity (percent stimulation of levator ani weight)” value is on record as “active”.

The test system is the same in another assay. Briefly: Ventral Prostate and Seminal Vesicle Weight In Vivo Assay. Note: key: active: the non weight adjusted prostate weight was ≦40 mg or the % Inhibition prostate weight, body weight adjusted was ≧40%@2 mg/day dosage; inactive: did not meet the specified criteria defined above. Particulars: inhibition of testosterone-enhanced prostate weight; immature castrated rats, once daily for five days, usually orally 40 mg/kg, with testosterone propionate 2 mg/kg s.c.
On to `CC(O)(CC#N)c1nc2cc(Cl)c(Cl)cc2[nH]1` (stereo not drawn) [Compound 7, 3-(5,6-dichloro-1H-benzoimidazol-2-yl)-3-hydroxy-butyronitrile], for which the outcome was active.
Same read-out and setting: next, `COc1ccc(Cn2c(CC(F)(F)F)nc3cc(Cl)c(Cl)cc32)cc1` [Compound 147, 5,6-Dichloro-1-(4-methoxy-benzyl)-2-(2,2,2-trifluoro-ethyl)-1H-benzoimidazole]: “active”; `CCC(O)Cn1c(CC(F)(F)F)nc2cc(Cl)c(Cl)cc21` (stereo not drawn) [Compound 148, 1-[5,6-Dichloro-2-(2,2,2-trifluoro-ethyl)-benzoimidazol-1-yl]-butan-2-ol]: “active”.
As for `FC(F)(F)Cc1nc2cc(Cl)c(Cl)cc2n1Cc1ccc(Br)cc1` [Compound 149, 1-(4-Bromo-benzyl)-5,6-dichloro-2-(2,2,2-trifluoro-ethyl)-1H-benzoimidazole], the outcome was active.
Same read-out and setting: the same measure for `CCOC(=O)c1ccc(Cn2c(CC(F)(F)F)nc3cc(Cl)c(Cl)cc32)cc1` [Compound 150, 4-[5,6-Dichloro-2-(2,2,2-trifluoro-ethyl)-benzoimidazol-1-ylmethyl]-benzoic Acid Ethyl Ester]: “active”; for `FC(F)(F)Cc1nc2cc(Cl)c(Cl)cc2n1Cc1ccccc1Br` [Compound 151, 1-(2-Bromo-benzyl)-5,6-dichloro-2-(2,2,2-trifluoro-ethyl)-1H-benzoimidazole]: “active”.
As for `FC(c1nc2cc(Cl)c(Cl)cc2[nH]1)C(F)(F)F` (stereo not drawn) [Compound 152, 5,6-Dichloro-2-(1,2,22-tetrafluoro-ethyl)-1H-benzoimidazole], the result was active.
In the case of `O=Cc1ccc(Cn2c(CC(F)(F)F)nc3cc(Cl)c(Cl)cc32)cc1` [Compound 153, 4-[5,6-Dichloro-2-(trifluoro-ethyl)-benzoimidazol-1-ylmethyl]-benzaldehyde], the result was inactive.
Same read-out and setting: the same measure for `FC(F)(F)C(F)(F)c1nc2cc(Cl)c(Cl)cc2[nH]1` [Compound 154, 5,6-Dichloro-2-(pentafluoroethyl)-1H-benzoimidazole]: “inactive”; for `O=[N+]([O-])c1cc2nc(C(O)C(F)(F)F)[nH]c2cc1[N+](=O)[O-]` (stereo not drawn) [Compound 155, 1-(5,6-Dinitro-1H-benzoimidazol-2-yl-)2,2,2-trifluoro-ethanol]: “inactive”; for `OC(c1nc2cc(Cl)ccc2[nH]1)C(F)(F)F` (stereo not drawn) [Compound 156, 1-(5-1H-benzoimidazol-2-yl-)2,2,2-trifluoro-ethanol]: “inactive”.
Still for that read-out and setting: next, `COc1cc2nc(C(O)C(F)(F)F)[nH]c2cc1OC` (stereo not drawn) [Compound 157, 1-(5,6-Dimethoxy-1H-benzoimidazol-2-yl-)2,2,2-trifluoro-ethanol]: “inactive”; `O=C(c1nc2cc(Cl)c(F)cc2[nH]1)C(F)(F)F` [Compound 159, 1-(5-Chloro-6-fluoro-1H-benzoimidazol-2-yl-)2,2,2-trifluoro-ethanone]: “active”.
Take `Cc1cc2[nH]c(C(=O)C(F)(F)F)nc2cc1Cl` [Compound 160, 1-(5-Chloro-6-methyl-1H-benzoimidazol-2-yl-)2,2,2-trifluoro-ethanone]: the outcome was active.
